Reference: ChEMBL document CHEMBL4651402, “Screening of ~5500 FDA-approved drugs and clinical candidates for anti-SARS-CoV-2 activity” (2021)
pIC50: −log10 of the molar value.

Test system: SARS-CoV-2
Test: microbe, parasite or virus in culture
Conditions: Severe acute respiratory syndrome coronavirus 2, Vero C1008, 48 h; for IC50: read-out: pIC50 (converted)

`CN1C(=O)CC(=O)N(c2ccccc2)c2cc(C(F)(F)F)ccc21` [TRIFLUBAZAM] gave a pIC50 of under 4.70 and an IC50 of over 20 µM.

`O=C(CCCN1CCC(O)(c2cccc(C(F)(F)F)c2)CC1)c1ccc(F)cc1` [TRIFLUPERIDOL] was tested, and the pIC50 was under 4.70 and the IC50 was over 20 µM.

With `CN(C)CCCN1c2ccccc2Sc2ccc(C(F)(F)F)cc21` [TRIFLUPROMAZINE] the pIC50 was under 4.70 and the IC50 was over 20 µM.

`O=c1[nH]c(=O)n([C@H]2C[C@H](O)[C@@H](CO)O2)cc1C(F)(F)F` [TRIFLURIDINE] gave a pIC50 of under 4.70 and an IC50 of over 20 µM.

Molecule `CC(=O)Oc1cc(C(F)(F)F)ccc1C(=O)O` [TRIFLUSAL] has a pIC50 of under 4.70 and an IC50 of over 20 µM.

`C[n+]1cccc(C(=O)[O-])c1` [TRIGONELLINE] showed a pIC50 of under 4.70 and an IC50 of over 20 µM.

`OC(CCN1CCCCC1)(c1ccccc1)C1CCCCC1` (centres undefined) [TRIHEXYPHENIDYL] gave a pIC50 of under 4.70 and an IC50 of over 20 µM.

`C[C@]12CC[C@H]3[C@@H](CC[C@@]45O[C@@H]4C(O)=C(C#N)C[C@]35C)[C@@H]1CC[C@@H]2O` [TRILOSTANE] was tested, and the pIC50 was under 4.70 and the IC50 was over 20 µM.

`COc1cc2c(N)nc(N3CCN(C(=O)OCC(C)(C)O)CC3)nc2c(OC)c1OC` [TRIMAZOSIN] showed a pIC50 of under 4.70 and an IC50 of over 20 µM.

Molecule `CCC(COC(=O)c1cc(OC)c(OC)c(OC)c1)(c1ccccc1)N(C)C` (centres undefined) [TRIMEBUTINE] has a pIC50 of under 4.70 and an IC50 of over 20 µM.

In the case of `CCN(CC)CC(=O)Nc1c(C)cc(C)cc1C` [TRIMECAINE], the pIC50 was under 4.70 and the IC50 was over 20 µM.

For `COc1ccc(CN2CCNCC2)c(OC)c1OC` [TRIMETAZIDINE], the pIC50 was under 4.70 and the IC50 was over 20 µM.

With `CN1C(=O)OC(C)(C)C1=O` [TRIMETHADIONE] the pIC50 was under 4.70 and the IC50 was over 20 µM.

With `COc1cc(C(=O)NCc2ccc(OCCN(C)C)cc2)cc(OC)c1OC` [TRIMETHOBENZAMIDE] the pIC50 was under 4.70 and the IC50 was over 20 µM.

`COc1cc(Cc2cnc(N)nc2N)cc(OC)c1OC` [TRIMETHOPRIM] showed a pIC50 of under 4.70 and an IC50 of over 20 µM.

`CC(CC(c1ccccc1)c1ccccc1)N(C)C` (centres undefined) [TRIMETHYLDIPHENYLPROPYLAMINE] was tested, and the pIC50 was under 4.70 and the IC50 was over 20 µM.

`COc1cc(C(=O)N2CCOCC2)cc(OC)c1OC` [TRIMETOZINE] gave a pIC50 of under 4.70 and an IC50 of over 20 µM.

With `COc1cc(NCc2ccc3nc(N)nc(N)c3c2C)cc(OC)c1OC` [TRIMETREXATE] the pIC50 was under 4.70 and the IC50 was over 20 µM.

`CC(CN(C)C)CN1c2ccccc2CCc2ccccc21` (centres undefined) [TRIMIPRAMINE] was tested, and the pIC50 was under 4.70 and the IC50 was over 20 µM.

`Cc1cc2cc3c(C)cc(=O)oc3c(C)c2o1` [TRIOXSALEN] was tested, and the pIC50 was under 4.70 and the IC50 was over 20 µM.

`CN(C)CCN(Cc1ccccc1)c1ccccn1` [TRIPELENNAMINE] showed a pIC50 of under 4.70 and an IC50 of over 20 µM.

With `Cc1ccc(/C(=C\CN2CCCC2)c2ccccn2)cc1` [TRIPROLIDINE] the pIC50 was under 4.70 and the IC50 was over 20 µM.

`COc1cc(C(=S)N2CCOCC2)cc(OC)c1OC` [TRITIOZINE] was tested, and the pIC50 was under 4.70 and the IC50 was over 20 µM.

Work on `O=c1[nH]c(=O)n(Cl)c(=O)n1Cl` [TROCLOSENE] yielded a pIC50 of under 4.70 and an IC50 of over 20 µM.

With `Cc1c(C)c2c(c(C)c1O)CCC(C)(COc1ccc(CC3SC(=O)NC3=O)cc1)O2` (centres undefined) [TROGLITAZONE] the pIC50 was under 4.70 and the IC50 was over 20 µM.

Work on `Cc1c(C)c2c(c(C)c1O)CCC(C)(C(=O)O)O2` (centres undefined) [TROLOX] yielded a pIC50 of under 4.70 and an IC50 of over 20 µM.

`NC(CO)(CO)CO` [TROMETHAMINE] showed a pIC50 of under 4.70 and an IC50 of over 20 µM.

`CCN(Cc1ccncc1)C(=O)C(CO)c1ccccc1` (centres undefined) [TROPICAMIDE] was tested, and the pIC50 was under 4.70 and the IC50 was over 20 µM.

`CN1[C@@H]2CC[C@H]1C[C@@H](OC(=O)c1c[nH]c3ccccc13)C2` [TROPISETRON] showed a pIC50 of under 4.70 and an IC50 of over 20 µM.

For `N[C@@H]1[C@H]2CN(c3nc4c(cc3F)c(=O)c(C(=O)O)cn4-c3ccc(F)cc3F)C[C@@H]12` [TROVAFLOXACIN], the pIC50 was under 4.70 and the IC50 was over 20 µM.

In the case of `COc1cc(C(=O)NC2CCCNC2)cc(OC)c1OC` (centres undefined) [TROXIPIDE], the pIC50 was under 4.70 and the IC50 was over 20 µM.

For `NCCc1c[nH]c2ccccc12` [TRYPTAMINE], the pIC50 was under 4.70 and the IC50 was over 20 µM.
